Data published in patent US9273042B2, “5-amino[1,4]thiazines as BACE 1 inhibitors” (Hoffmann-La Roche Inc., priority 2012, dated 2016).

The compounds below were run against BACE1 (Homo sapiens (Human), UniProt P56817) (assay: Cellular Aβ-lowering assay (Abeta 40 AlphaLISA)). Conditions: HEK293 APP cells, 18-20 hrs incubation, Aβ 40 in culture supernatants; read-out: BACE1 cell act. Aβ40, IC50.
Chain of BACE1 (P56817 46-501): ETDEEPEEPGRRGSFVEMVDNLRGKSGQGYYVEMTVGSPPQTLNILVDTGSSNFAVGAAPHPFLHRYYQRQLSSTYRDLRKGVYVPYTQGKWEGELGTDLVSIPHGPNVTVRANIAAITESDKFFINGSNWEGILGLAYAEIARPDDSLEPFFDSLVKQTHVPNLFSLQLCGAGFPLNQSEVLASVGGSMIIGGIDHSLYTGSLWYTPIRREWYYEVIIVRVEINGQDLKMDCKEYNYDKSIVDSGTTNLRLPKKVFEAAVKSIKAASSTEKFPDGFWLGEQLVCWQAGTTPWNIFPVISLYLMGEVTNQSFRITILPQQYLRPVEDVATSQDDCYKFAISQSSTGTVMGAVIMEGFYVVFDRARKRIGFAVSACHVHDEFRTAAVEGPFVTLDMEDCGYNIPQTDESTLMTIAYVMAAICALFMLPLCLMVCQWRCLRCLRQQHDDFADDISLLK
Assay type: cell-based
Description: Cellular Aβ-Lowering Assay:
The Abeta 40 AlphaLISA Assay can be used. The HEK293 APP cells were seeded in 96 well Microtiter plates in cell culture medium (Iscove's, plus 10% (v/v) fetal bovine serum, penicillin/streptomycin) to about 80% confluency and the compounds were added at a 3× concentration in ⅓ volume of culture medium (final DMSO concentration was kept at 1% v/v). After 18-20 hrs incubation at 37° C. and 5% CO2 in a humidified incubator, the culture supernatants were harvested for the determination of Aβ 40 concentrations using Perkin-Elmer Human Amyloid beta 1-40 (high specificity) Kit (Cat#AL275C).
In a Perkin-Elmer White Optiplate-384 (Cat#6007290), 2 ul culture supernatants were combined with 2 μl of a 10× AlphaLISA Anti-hAβAcceptor beads+Biotinylated Antibody Anti-Aβ 1-40 Mix (50 μg/mL/5 nM). After 1 hour room temperature incubation, 16 μl of a 1.25× preparation of Streptavidin (SA) Donor beads (25 μg/mL) were added and incubated for 30 minutes in the Dark. Light Emission at 615 nm was then recorded using EnVision-Alpha Reader. Levels of Aβ 40 in the culture supernatants were calculated as percentage of maximum signal (cells treated with 1% DMSO without inhibitor). The IC50 values were calculated using the Excel XLfit software.
For `C[C@@]1(c2cc(NC(=O)c3ccc(C#N)cn3)ccc2F)CSCC(N)=N1` [Example 1, (R)—N-(3-(5-amino-3-methyl-3,6-dihydro-2H-1,4-thiazin-3-yl)-4-fluorophenyl)-5-cyanopicolinamide], the IC50 was 11 nM.
For `C[C@@]1(c2cc(NC(=O)c3ccc(C#N)cn3)ccc2F)CS(=O)(=O)CC(N)=N1` [Example 2, 5-Cyano-pyridine-2-carboxylic acid [3-((R)-5-amino-3-methyl-1,1-dioxo-1,2,3,6-tetrahydro-1λ6-[1,4]thiazin-3-yl)-4-fluoro-phenyl]-amide], the IC50 was 8.2 nM.
With `C[C@@]1(c2cc(NC(=O)c3ccc(OC(F)F)cn3)ccc2F)CS(=O)(=O)CC(N)=N1` [Example 4, 5-Difluoromethoxy-pyridine-2-carboxylic acid [3-((R)-5-amino-3-methyl-1,1-dioxo-1,2,3,6-tetrahydro-1λ6-[1,4]thiazin-3-yl)-4-fluoro-phenyl]-amide] the IC50 was 5.7 nM.
In the case of `C[C@@]1(c2cc(NC(=O)c3ccc(C#N)cn3)ccc2F)CS(=O)(=O)C2(CCCC2)C(N)=N1` [Example 9, 5-Cyano-pyridine-2-carboxylic acid [3-((R)-10-amino-8-methyl-6,6-dioxo-6λ6-thia-9-aza-spiro[4.5]dec-9-en-8-yl)-4-fluoro-phenyl]-amide], the IC50 is reported as 1 nM.
Work on `CC1(C)C(N)=N[C@](C)(c2cc(NC(=O)c3ccc(C#N)cn3)ccc2F)CS1(=O)=O` [Example 6, 5-Cyano-pyridine-2-carboxylic acid [3-((R)-5-amino-3,6,6-trimethyl-1,1-dioxo-1,2,3,6-tetrahydro-1λ6-[1,4]thiazin-3-yl)-4-fluoro-phenyl]-amide] yielded an IC50 of 0.2 nM.
For `C[C@@]1(c2cc(NC(=O)c3ccc(Cl)cn3)ccc2F)CS(=O)(=O)CC(N)=N1` [Example 3, 5-Chloro-pyridine-2-carboxylic acid [3-((R)-5-amino-3-methyl-1,1-dioxo-1,2,3,6-tetrahydro-1λ6-[1,4]thiazin-3-yl)-4-fluoro-phenyl]-amide], the IC50 was 6.1 nM.
